Experimental data reported in patent US11065265B2, “Compositions of fosaprepitant and methods of preparation” (SPES PHARMACEUTICALS INC., priority 2018, dated 2021).

Assays:
[1] = Solubility enhancing effect of cyclodextrin derivative on aprepitant in aqueous medium; assay type: physicochemical
[2] = cited from earlier work

Compound: C[C@@H](O[C@H]1OCCN(Cc2n[nH]c(=O)[nH]2)[C@H]1c1ccc(F)cc1)c1cc(C(F)(F)F)cc(C(F)(F)F)c1 [Aprepitant]
- Increase in Aprepitant Solubility ([1]; Cyclodextrin Derivative 0 mg/mL): 0%
- Increase in Aprepitant Solubility ([1]; Cyclodextrin Derivative 32 mg/mL): 105%
- Increase in Aprepitant Solubility ([1]; Cyclodextrin Derivative 64 mg/mL): 300%
- Increase in Aprepitant Solubility ([1]; Cyclodextrin Derivative 128 mg/mL): 748%
- Increase in Aprepitant Solubility ([1]; Cyclodextrin Derivative 160 mg/mL): 1039%
- Increase in Aprepitant Solubility ([1]; Cyclodextrin Derivative 180 mg/mL): 1244%
- Increase in Aprepitant Solubility ([1]; Cyclodextrin Derivative 200 mg/mL): 1322%
- Increase in Aprepitant Solubility ([1]; Cyclodextrin Derivative 255 mg/mL): 1717%
- solubility in non-polar solvents such as oils ([2]; non-polar solvents such as oils): reasonably high
- solubility in water ([2]; water): very limited
